{"source": "patent US9302999B2", "about": "“Substituted triazoles as herbicides” (E. I. DU PONT DE NEMOURS AND COMPANY, priority 2012, dated 2016)", "assay_type_in_all_cases": "in vivo", "key": {"[1]": {"tested_on": "velvetleaf (Abutilon theophrasti)", "test": "Test E pre-/postemergence: velvetleaf", "details": "Preemergence, scale 0 to 100", "how_it_was_run": "(§1)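 Scores reflect greenhouse visual evaluation after 14–21 days, 0 meaning no effect and 100 complete control relative to untreated plants, for pre- and postemergence (1–4 leaf) applications.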"}, "[2]": {"tested_on": "smartweed (ladysthumb smartweed, Polygonum persicaria)", "test": "Test E pre-/postemergence: smartweed", "details": "Postemergence, scale 0 to 100", "how_it_was_run": "as §1"}, "[3]": {"tested_on": "surinam grass (Brachiaria decumbens)", "test": "Test E pre-/postemergence: surinam grass", "details": "Preemergence, scale 0 to 100", "how_it_was_run": "as §1"}, "[4]": {"tested_on": "johnsongrass (Sorghum halepense)", "test": "Test E pre-/postemergence: johnsongrass", "details": "Preemergence, scale 0 to 100", "how_it_was_run": "as §1"}, "[5]": {"tested_on": "ragweed (common ragweed, Ambrosia elation)", "test": "Test E pre-/postemergence: ragweed", "details": "Preemergence, scale 0 to 100", "how_it_was_run": "as §1"}, "[6]": {"tested_on": "morningglory (Ipomoea coccinea)", "test": "Test E pre-/postemergence: morningglory", "details": "Preemergence, scale 0 to 100", "how_it_was_run": "as §1"}, "kochia (Kochia scoparia)": {"tested_on": "kochia (Kochia scoparia)", "test": "Test E pre-/postemergence: kochia", "details": "Preemergence, scale 0 to 100", "excerpt": "Seeds of plant species selected from corn (Zea mays), soybean (Glycine max), velvetleaf (Abutilon theophrasti), lambsquarters (Chenopodium album), poinsettia, wild (wild poinsettia, Euphorbia heterophylla), pigweed, palmer (palmer pigweed, Amaranthus palmeri), waterhemp (common waterhemp, Amaranthus rudis), smartweed (ladysthumb smartweed, Polygonum persicaria), surinam grass (Brachiaria decumbens), crabgrass, large (large crabgrass, Digitaria sanguinalis), crabgrass, Brazil (Brazilian crabgrass, Digitaria horizontalis), panicum, fall (fall panicum, Panicum dichotomiflorum), foxtail, giant (giant foxtail, Setaria faberii), foxtail, green (green foxtail, Setaria viridis), goosegrass (Eleusine indica), johnsongrass (Sorghum halepense), ragweed (common ragweed, Ambrosia elation), barnyardgrass (Echinochloa crus-galli), sandbur (southern sandbur, Cenchrus echinatus), arrowleaf sida (Sida rhombifolia), ryegrass, Italian (Italian ryegrass, Lolium multiflorum), dayflower, (VA) (Virginia dayflower, Commelina virginica), field bindweed (Convolvulus arvensis), cocklebur (common cocklebur, Xanthium strumarium), morningglory (Ipomoea coccinea), nightshade (eastern black nightshade, Solanum ptycanthum), kochia (Kochia scoparia), nutsedge, yellow (yellow nutsedge, Cyperus esculentus) and beggarticks (hairy beggarticks, Bidens pilosa) were planted into a silt loam soil and treated preemergence with test chemicals formulated in a non-phytotoxic solvent mixture which included a surfactant. At the same time, plants selected from these crop and weed species were planted in pots containing a growing medium comprising spaghnum peat moss, vermiculite, wetting agent and starter nutrients and treated with postemergence applications of some of the test chemicals formulated in the same manner. Plants ranged in height from 2 to 18 cm for postemergence treatments (1- to 4-leaf stage).\n(§2) Treated plants and controls were maintained in a greenhouse for 14 to 21 days, after which time all species were compared to controls and visually evaluated. Plant response ratings, summarized in Table E, are based on a scale of 0 to 100 where 0 is no effect and 100 is complete control. A dash (-) response means no test result."}, "[7]": {"tested_on": "pigweed (Amaranthus retroflexus)", "test": "Test F postemergence: pigweed", "details": "scale 0 to 100", "excerpt": "(§3) Seeds of plant species selected from corn (Zea mays), soybean (Glycine max), velvetleaf (Abutilon theophrasti), lambsquarters (Chenopodium album), poinsettia, wild (wild poinsettia, Euphorbia heterophylla), pigweed, palmer (palmer pigweed, Amaranthus palmeri), waterhemp (common waterhemp, Amaranthus rudis), surinam grass (Brachiaria decumbens), crabgrass, Brazil (Brazilian crabgrass, Digitaria horizontalis), panicum, fall (fall panicum Panicum dichotomiflorum), crabgrass, large (large crabgrass, Digitaria sanguinalis), foxtail, giant (giant foxtail, Setaria faberii), foxtail, green (green foxtail Setaria viridis), goosegrass (Eleusine indica), ragweed (common ragweed, Ambrosia elatior), barnyardgrass (Echinochloa crus-galli), sandbur (southern sandbur, Cenchrus echinatus), arrowleaf sida (Sida rhombifolia), ryegrass, Italian (Italian ryegrass, Lolium multiflorum), dayflower, VA (Virginia (VA) dayflower, Commelina virginica), field bindweed (Convolvulus arvensis), cocklebur (common cocklebur, Xanthium strumarium), morningglory (Ipomoea coccinea), nightshade (eastern black nightshade, Solanum ptycanthum), kochia (Kochia scoparia), nutsedge, yellow (yellow nutsedge, Cyperus esculentus), johnsongrass (Sorghum halepense), smartweed (ladysthumb smartweed, Polygonum persicaria), and beggarticks (hairy beggarticks, Bidens pilosa), were planted into a silt loam soil and treated preemergence with test chemicals formulated in a non-phytotoxic solvent mixture which included a surfactant. At the same time, plants selected from these crop and weed species and also pigweed (Amaranthus retroflexus), waterhemp_RES1 (ALS/Triazine resistant common waterhemp, Amaranthus rudis) and waterhemp_RES2 (ALS/HPPD resistant common waterhemp, Amaranthus rudis) were planted in pots containing a planting medium comprising spaghnum peat moss, vermiculite, wetting agent and starter nutrients treated with postemergence applications of some of the test chemicals formulated in the same manner. Plants ranged in height from 2 to 18 cm for postemergence treatments (1- to 4-leaf stage).\nas §2"}, "[8]": {"tested_on": "waterhemp_RES1 (ALS/Triazine resistant common waterhemp, Amaranthus rudis)", "test": "Test F postemergence: waterhemp_RES1", "details": "scale 0 to 100", "excerpt": "as §3, §2"}, "Waterhemp": {"tested_on": "Waterhemp", "test": "Test C preemergence: waterhemp", "details": "scale 0 (no effect) to 100 (complete control)"}}}
{"smiles": "Cc1nn(-c2ccc(C(F)(F)F)cc2)nc1Oc1ccnc(C(F)(F)F)c1", "note": "[Compound 120]", "values": [{"measurement": "Plant response rating: Velvetleaf", "setting": "[1]; 16 g ai/ha", "value": 15}, {"measurement": "Plant response rating: Velvetleaf", "setting": "[1]; 31 g ai/ha", "value": 30}, {"measurement": "Plant response rating: Velvetleaf", "setting": "[1]; 62 g ai/ha", "value": 35}, {"measurement": "Plant response rating: Velvetleaf", "setting": "[1]; 125 g ai/ha", "value": 50}, {"measurement": "Plant response rating: Velvetleaf", "setting": "[1]; 250 g ai/ha", "value": 65}, {"measurement": "Plant response rating: Smartweed", "setting": "[2]; 8 g ai/ha", "value": 10}, {"measurement": "Plant response rating: Smartweed", "setting": "[2]; 16 g ai/ha", "value": 10}, {"measurement": "Plant response rating: Smartweed", "setting": "[2]; 125 g ai/ha", "value": 40}, {"measurement": "Plant response rating: Surinam Grass", "setting": "[3]; 16 g ai/ha", "value": 0}, {"measurement": "Plant response rating: Surinam Grass", "setting": "[3]; 31 g ai/ha", "value": 35}, {"measurement": "Plant response rating: Surinam Grass", "setting": "[3]; 62 g ai/ha", "value": 35}, {"measurement": "Plant response rating: Surinam Grass", "setting": "[3]; 125 g ai/ha", "value": 90}, {"measurement": "Plant response rating: Surinam Grass", "setting": "[3]; 250 g ai/ha", "value": 100}, {"measurement": "Plant response rating: Johnsongrass", "setting": "[4]; 16 g ai/ha", "value": 15}, {"measurement": "Plant response rating: Johnsongrass", "setting": "[4]; 31 g ai/ha", "value": 15}, {"measurement": "Plant response rating: Johnsongrass", "setting": "[4]; 62 g ai/ha", "value": 15}, {"measurement": "Plant response rating: Johnsongrass", "setting": "[4]; 125 g ai/ha", "value": 35}, {"measurement": "Plant response rating: Johnsongrass", "setting": "[4]; 250 g ai/ha", "value": 65}, {"measurement": "Plant response rating: Ragweed", "setting": "[5]; 16 g ai/ha", "value": 0}, {"measurement": "Plant response rating: Ragweed", "setting": "[5]; 31 g ai/ha", "value": 0}, {"measurement": "Plant response rating: Ragweed", "setting": "[5]; 62 g ai/ha", "value": 30}, {"measurement": "Plant response rating: Ragweed", "setting": "[5]; 125 g ai/ha", "value": 35}, {"measurement": "Plant response rating: Ragweed", "setting": "[5]; 250 g ai/ha", "value": 80}, {"measurement": "Plant response rating: Morningglory", "setting": "[6]; 16 g ai/ha", "value": 0}, {"measurement": "Plant response rating: Morningglory", "setting": "[6]; 31 g ai/ha", "value": 30}, {"measurement": "Plant response rating: Morningglory", "setting": "[6]; 62 g ai/ha", "value": 35}, {"measurement": "Plant response rating: Morningglory", "setting": "[6]; 125 g ai/ha", "value": 60}, {"measurement": "Plant response rating: Morningglory", "setting": "[6]; 250 g ai/ha", "value": 60}, {"measurement": "Plant response rating: Kochia", "setting": "kochia (Kochia scoparia); 16 g ai/ha", "value": 0}, {"measurement": "Plant response rating: Kochia", "setting": "kochia (Kochia scoparia); 31 g ai/ha", "value": 20}, {"measurement": "Plant response rating: Kochia", "setting": "kochia (Kochia scoparia); 62 g ai/ha", "value": 50}, {"measurement": "Plant response rating: Kochia", "setting": "kochia (Kochia scoparia); 125 g ai/ha", "value": 90}, {"measurement": "Plant response rating: Kochia", "setting": "kochia (Kochia scoparia); 250 g ai/ha", "value": 100}]}
{"smiles": "Cc1nn(-c2ccnc(Cl)c2)nc1Cc1ccnc(C(F)(F)F)c1", "note": "[Compound 141]", "values": [{"measurement": "Plant response rating, Pigweed", "setting": "[7]; 8 g ai/ha", "value": 90}, {"measurement": "Plant response rating, Pigweed", "setting": "[7]; 16 g ai/ha", "value": 95}, {"measurement": "Plant response rating, Pigweed", "setting": "[7]; 31 g ai/ha", "value": 95}, {"measurement": "Plant response rating, Pigweed", "setting": "[7]; 62 g ai/ha", "value": 95}, {"measurement": "Plant response rating, Pigweed", "setting": "[7]; 125 g ai/ha", "value": 95}, {"measurement": "Plant response rating, Waterhemp, Res1", "setting": "[8]; 8 g ai/ha", "value": 90}, {"measurement": "Plant response rating, Waterhemp, Res1", "setting": "[8]; 16 g ai/ha", "value": 95}, {"measurement": "Plant response rating, Waterhemp, Res1", "setting": "[8]; 31 g ai/ha", "value": 95}, {"measurement": "Plant response rating, Waterhemp, Res1", "setting": "[8]; 62 g ai/ha", "value": 95}, {"measurement": "Plant response rating, Waterhemp, Res1", "setting": "[8]; 125 g ai/ha", "value": 95}]}
{"smiles": "FCc1nn(-c2ccc(F)cc2)nc1Oc1ccnc(C(F)(F)F)c1", "note": "[Compound 160]", "values": [{"measurement": "Plant response rating, Waterhemp", "setting": "Waterhemp; 16 g ai/ha", "value": 100}]}
{"smiles": "CCOc1nn(-c2ccc(Cl)cc2)nc1Cc1ccnc(C(F)(F)F)c1", "note": "[Compound 188]", "values": [{"measurement": "Plant response rating, Waterhemp", "setting": "Waterhemp; 31 g ai/ha", "value": 100}]}
{"smiles": "CCOc1nn(-c2ccc(F)cc2)nc1Cc1ccnc(C(F)(F)F)c1", "note": "[Compound 196, 4-[[5-ethoxy-2-(4-fluorophenyl)-2H-1,2,3-triazol-4-yl]methyl]-2-(trifluoromethyl)pyridine]", "values": [{"measurement": "Plant response rating, Pigweed", "setting": "[7]; 8 g ai/ha", "value": 85}, {"measurement": "Plant response rating, Pigweed", "setting": "[7]; 16 g ai/ha", "value": 95}, {"measurement": "Plant response rating, Pigweed", "setting": "[7]; 31 g ai/ha", "value": 95}, {"measurement": "Plant response rating, Pigweed", "setting": "[7]; 62 g ai/ha", "value": 95}, {"measurement": "Plant response rating, Pigweed", "setting": "[7]; 125 g ai/ha", "value": 95}, {"measurement": "Plant response rating, Waterhemp, Res1", "setting": "[8]; 8 g ai/ha", "value": 95}, {"measurement": "Plant response rating, Waterhemp, Res1", "setting": "[8]; 16 g ai/ha", "value": 95}, {"measurement": "Plant response rating, Waterhemp, Res1", "setting": "[8]; 31 g ai/ha", "value": 95}, {"measurement": "Plant response rating, Waterhemp, Res1", "setting": "[8]; 62 g ai/ha", "value": 95}, {"measurement": "Plant response rating, Waterhemp, Res1", "setting": "[8]; 125 g ai/ha", "value": 100}]}
